# Test results from PMC7751394, “Succinic acid inhibits the activity of cytochrome P450 (CYP450) enzymes” (Pharmaceutical Biology, 2020).
# How the values were obtained:
# [1] = biological target: T1, CYP2C9 (Homo sapiens, UniProt P11712); assay: biochemical
# Description: (§1) All incubations were performed in triplicate, and the mean values were utilized. The typical incubation systems contained 100 mM potassium phosphate buffer (pH 7.4), NADPH generating system (1 mM NADP^+, 10 mM glucose-6-phosphate, 1 U/mL of glucose-6-phosphate dehydrogenase, and 4 mM MgCl2), the appropriate concentration of HLMs, a corresponding probe substrate and hispidulin (or positive inhibitor for different probe reactions) in a final volume of 200 μL.
# (§2) The concentration of succinic acid was 100 μM, and the positive inhibitor concentrations were as follows: 10 μM furafylline for CYP1A2, 1 μM ketoconazole for CYP3A4, 10 μM tranylcypromine for CYP2A6, 50 μM clomethiazole for CYP2E1, 10 μM quinidine for CYP2D6, 10 μM sulfaphenazole for CYP2C9, 50 μM tranylcypromine for CYP2C19, 5 μM montelukast for CYP2C8. Probe substrates, positive inhibitors (except for dextromethorphan and quinidine, which were dissolved in water), and succinic acid were dissolved in methanol, with a final concentration of 1% (v/v), and 1% neat methanol was added to the incubations without inhibitor. There was a 3 min preincubation period (at 37 °C) before the reaction was initiated by adding an NADPH-generating system. The reaction was terminated by adding a 100 μL acetonitrile (10% trichloroacetic acid for CYP2A6) internal standard mix, and the solution was placed on ice. The mixture was centrifuged at 12,000 rpm for 10 min, and an aliquot (50 μL) of supernatant was transferred for HPLC analysis. The instrument used in this study was Agilent 1260 series instrument with DAD and FLD detector, and the quantitative assay for the corresponding metabolites was performed as previously reported (Lang et al. [2017]; Zhang et al. [2017]).
# (§3) Succinic acid (100 μM) was used to initially screen for its direct inhibitory effects towards different human CYP isoforms. […] Ki values were obtained by incubating various concentrations of different probe substrates (20–100 μM testosterone, 10–50 μM dextromethorphan, 5–20 μM diclofenac) in the presence of 0–50 μM succinic acid.
# (§4) The enzyme kinetic parameters for the probe reaction were estimated from the best fit line, using least-squares linear regression of the inverse substrate concentration versus the inverse velocity (Lineweaver-Burk plots), and the mean values were used to calculate Vmax and Km. Inhibition data from the experiments that were conducted using multiple compound concentrations were represented by Dixon plots, and inhibition constant (Ki) values were calculated using non-linear regression according to the following equation: v=(VmaxS)/(Km(1+I/Ki)+S), where I is the concentration of the compound, Ki is the inhibition constant, S is the concentration of the substrate, and Km is the substrate concentration at half the maximum velocity (Vmax) of the reaction. The mechanism of the inhibition was inspected using the Lineweaver-Burk plots and the enzyme inhibition models. The data comparison was performed using Student’s t-test and performed using IBM SPSS statistics 20 (SPSS Inc.).
# [2] = biological target: T2, CYP2D6 (Homo sapiens, UniProt P10635); assay: biochemical
# Description: as §1, §2, §3, §4
# [3] = biological target: T3, CYP3A4 (Homo sapiens, UniProt P08684); assay: biochemical
# Description: as §1, §2, §3, §4
# [4] = biological target: T3, CYP3A4
# Description: (§5) To determine whether succinic acid could inhibit the activity of CYP3A4, 2D6, and 2C9 in a time-dependent manner, succinic acid (20 μM) was pre-incubated with HLMs (1 mg/mL) in the presence of an NADPH-generating system for 30 min at 37 °C. After incubation, an aliquot (20 μL) was transferred to another incubation tube (final volume 200 μL) containing an NADPH-generating system and probe substrates whose final concentrations were approximate to Km. Then, further incubations were performed to measure the residual activity. After being incubated for 0, 5, 10, 15, and 30 min, the reactions were terminated by adding a 100 μL acetonitrile internal standard mix and then placed on ice; the corresponding metabolites were determined by HPLC.
# To determine the KI and Kinact values for the inactivation of CYP3A4, the incubations were conducted using higher probe substrate concentrations (approximately 4-fold Km values) and various concentrations of succinic acid (0–50 μM) after different preincubation times (0–30 min), with a two-step incubation scheme, as described above.
# [5] = biological target: T1, CYP2C9; conditions: succinic acid 20 μM, 0–30 min
# Description: as §5
# [6] = biological target: T2, CYP2D6; conditions: succinic acid 20 μM, 0–30 min
# Description: as §5
# T1 sequence (P11712 whole entry): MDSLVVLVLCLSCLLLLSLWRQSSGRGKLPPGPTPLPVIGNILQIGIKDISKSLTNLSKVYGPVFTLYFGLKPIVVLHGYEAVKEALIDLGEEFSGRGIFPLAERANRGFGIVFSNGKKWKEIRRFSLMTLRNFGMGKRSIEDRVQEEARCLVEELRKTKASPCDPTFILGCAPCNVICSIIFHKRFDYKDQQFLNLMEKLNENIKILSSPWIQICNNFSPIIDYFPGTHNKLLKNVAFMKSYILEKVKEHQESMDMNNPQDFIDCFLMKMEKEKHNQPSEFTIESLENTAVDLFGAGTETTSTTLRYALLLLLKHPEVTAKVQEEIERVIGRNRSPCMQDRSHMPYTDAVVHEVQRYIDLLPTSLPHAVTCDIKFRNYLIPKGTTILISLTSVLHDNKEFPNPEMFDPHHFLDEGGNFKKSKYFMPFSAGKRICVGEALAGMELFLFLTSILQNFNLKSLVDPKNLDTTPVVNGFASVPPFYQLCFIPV
# T3 sequence (P08684 whole entry): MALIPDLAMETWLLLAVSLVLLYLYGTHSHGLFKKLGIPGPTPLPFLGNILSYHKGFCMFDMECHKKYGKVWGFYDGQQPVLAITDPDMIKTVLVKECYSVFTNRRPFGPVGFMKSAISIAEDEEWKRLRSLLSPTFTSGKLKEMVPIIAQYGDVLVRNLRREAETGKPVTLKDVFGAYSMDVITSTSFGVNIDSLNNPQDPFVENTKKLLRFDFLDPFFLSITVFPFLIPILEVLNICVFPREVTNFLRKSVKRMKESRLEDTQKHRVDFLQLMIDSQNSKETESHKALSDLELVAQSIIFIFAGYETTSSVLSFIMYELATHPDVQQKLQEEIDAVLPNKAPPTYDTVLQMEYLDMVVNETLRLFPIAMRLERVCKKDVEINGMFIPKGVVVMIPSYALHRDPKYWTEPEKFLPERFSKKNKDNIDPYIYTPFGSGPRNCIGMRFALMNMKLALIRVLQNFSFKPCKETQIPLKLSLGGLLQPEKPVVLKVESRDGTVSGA
# T2 sequence (P10635 whole entry): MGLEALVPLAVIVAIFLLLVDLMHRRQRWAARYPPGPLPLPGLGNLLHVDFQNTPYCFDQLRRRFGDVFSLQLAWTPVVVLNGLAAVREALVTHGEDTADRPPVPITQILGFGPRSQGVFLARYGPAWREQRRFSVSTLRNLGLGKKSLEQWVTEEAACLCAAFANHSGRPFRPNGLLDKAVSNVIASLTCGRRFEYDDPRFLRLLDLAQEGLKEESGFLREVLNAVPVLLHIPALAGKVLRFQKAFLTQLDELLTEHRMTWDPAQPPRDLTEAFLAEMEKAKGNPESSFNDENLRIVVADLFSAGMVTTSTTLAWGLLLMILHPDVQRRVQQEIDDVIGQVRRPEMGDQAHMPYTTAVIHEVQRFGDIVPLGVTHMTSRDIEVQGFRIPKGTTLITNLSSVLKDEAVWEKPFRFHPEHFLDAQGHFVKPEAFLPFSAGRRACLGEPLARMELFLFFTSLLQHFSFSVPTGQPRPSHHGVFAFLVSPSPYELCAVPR
compound,measurement,setting,value
"O=C(O)CCC(=O)O [succinic acid, Succinic acid]",IC50,[1],19.6 µM
same,Ki,[1],9.48 µM
same,inhibition model CYP2C9 (Lineweaver-Burk plots),[1]; pooled HLM,competitive
same,IC50,[2],14.5 µM
same,Ki,[2],7.4 µM
same,inhibition model CYP2D6 (Lineweaver-Burk plots),[2]; microsomes,competitive
same,IC50,[3],12.8 µM
same,Ki,[3],6.18 µM
same,inhibition model CYP3A4 (Lineweaver-Burk plots),[3]; pooled HLM,non-competitive
same,time dependence of CYP3A4 inhibition,"[4]; succinic acid 20 μM, 0–30 min",time-dependent
same,activity of CYP3A4 (decreased to) after incubating,"[4]; succinic acid 20 μM, 30 min incubation, HLMs with NADPH",26.65%
same,CYP3A4 inactivated by succinic acid,[4]; suggested from Kinact,about 5.1%
same,effect of incubation time on CYP2C9 activity,[5],not affected by the incubation time
same,effect of incubation time on CYP2D6 activity,[6],not affected by the incubation time
